Source: patent US11279733B2, “Peptide antibiotics” (priority 2017, dated 2022)
In brackets after ≈: the same amount, converted by molar mass. Like-named read-outs stand apart in the source and are kept apart here. Positions of bridges follow the written chain, without caps; N, C: chain ends. Non-standard residues stand in square brackets, D forms with d. Residues, ends and D or L forms follow the SMILES beside them. *: point of attachment. Decanoyl(3R-OH) = CCCCCCC[C@@H](O)CC(=O)*; dBip = N[C@H](Cc1ccc(-c2ccccc2)cc1)C(=O)O; hPhe = N[C@@H](CCc1ccccc1)C(=O)O; dDab = NCC[C@@H](N)C(=O)O; Dab = NCC[C@H](N)C(=O)O

Assays:
[1] = test system: K. pneumoniae ATCC BAA-2146, NDM-1 pos; settings: ATCC BAA-2146
Experimental: (§1) Bacteria were either obtained from American Type Culture Collection (ATCC; Manassas, Va., USA) or independent academic clinical isolate collections, as listed in Table 18 below. Bacteria were cultured in Nutrient broth (NB; Bacto Laboratories, catalogue No. 234000) or Mueller Hinton broth (MHB; Bacto Laboratories, catalogue No. 211443) at 37° C. overnight with shaking (˜180 RPM). A sample of each culture was then diluted 50-fold in fresh MHB and incubated at 37° C. for 2-3 h with shaking (˜180 RPM). Compound stock solutions were prepared as 0.64 mg/mL or 2.56 mg/mL in water. The compounds, at twice the final desired concentration, were serially diluted 2-fold across the wells of 96-well plates (Polystyrene, Corning, catalogue No. 3370). Mid-log phase bacterial cultures (after 2-3 h incubation) were diluted to a final concentration of 1×10^6 colony forming units (CFU)/mL, and 50 μL was added to each well giving a final cell density of 5×10^5 and a compound concentration range of 32 μg/mL to 0.015 μg/mL (128-0.06 μg/mL against P. aeruginosa PA9704).

[2] = test system: S. aureus ATCC 25923, MSSA; settings: ATCC 25923
Experimental: as §1

A. baumannii GN_093 PmxR = settings: GN 093 PmxR
Experimental: as §1

[3] = test system: P. aeruginosa GN_043, PmxR
Experimental: as §1

K. pneumoniae ATCC 13883 = settings: ATCC 13883
Experimental: as §1

[4] = test system: K. pneumoniae GN_102 PmxR; settings: GN 102 PmxR
Experimental: as §1

P. aeruginosa ATCC 27853 = settings: ATCC 27853
Experimental: as §1

[5] = test system: K. pneumoniae ATCC 700603, MDR; settings: ATCC 700603
Experimental: as §1

[6] = test system: K. pneumoniae GN_106, PmxR; settings: GN 106, PmxR
Experimental: as §1

[7] = test system: P. aeruginosa GN_105, PmxR; settings: GN 105, PmxR
Experimental: as §1

E. coli ATCC 25922 = settings: ATCC 25922
Experimental: as §1

A. baumannii ATCC 19606 = settings: ATCC 19606
Experimental: as §1

Row | SMILES | MIC K. pneumoniae ATCC BAA-2146, NDM-1 pos [1] [µg/mL] | MIC S. aureus ATCC 25923, MSSA [2] [µg/mL] | MIC A. baumannii GN_093 PmxR (A. baumannii GN_093 PmxR) [µg/mL] | MIC P. aeruginosa GN_043, PmxR ([3]; polymyxin-resistant) [µg/mL] | MIC K. pneumoniae ATCC 13883 (K. pneumoniae ATCC 13883) [µg/mL] | MIC K. pneumoniae GN_102 PmxR [4] [µg/mL] | MIC P. aeruginosa ATCC 27853 (P. aeruginosa ATCC 27853) [µg/mL] | MIC K. pneumoniae ATCC 700603, MDR [5] [µg/mL] | MIC K. pneumoniae GN_106, PmxR [6] [µg/mL] | MIC P. aeruginosa GN_105, PmxR [7] [µg/mL] | MIC E. coli ATCC 25922 (E. coli ATCC 25922) [µg/mL] | MIC A. baumannii ATCC 19606 (A. baumannii ATCC 19606) [µg/mL] | MIC, K. pneumoniae ATCC BAA-2146, NDM-1 pos [1] [µg/mL] | MIC P. aeruginosa GN_043, PmxR ([3]; P. aeruginosa GN_043, PmxR) [µg/mL] | MIC, K. pneumoniae ATCC 13883 (K. pneumoniae ATCC 13883) [µg/mL] | MIC, P. aeruginosa ATCC 27853 (P. aeruginosa ATCC 27853) [µg/mL] | MIC, K. pneumoniae ATCC 700603, MDR [5] [µg/mL] | MIC, E. coli ATCC 25922 (E. coli ATCC 25922) [µg/mL] | MIC, A. baumannii ATCC 19606 (A. baumannii ATCC 19606) [µg/mL] | also measured
1 | CCCCCCC[C@@H](O)CC(=O)N[C@H](CCN)C(=O)N[C@H]1CCNC(=O)[C@H](Cc2c[nH]c3ccccc23)NC(=O)[C@H](CCN)NC(=O)[C@H](CCN)NC(=O)[C@H](CCc2ccccc2)NC(=O)[C@@H](Cc2ccccc2)NC(=O)[C@H](CCN)NC1=O [compound 8834, nC10-3(R)OH-D-Dab-cyc[L-Dab-L-Dab-D-Phe-L-hPhe-L-Dab-L-Dab-L-Trp]] ({Decanoyl(3R-OH)}-[dDab][Dab][Dab][dF][hPhe][Dab][Dab]W; lactam 2-C) | 8 (≈ 6.86 µM) | 4 (≈ 3.43 µM) | 8 (≈ 6.86 µM) | 4 (≈ 3.43 µM) | 4 (≈ 3.43 µM) | 4 (≈ 3.43 µM) | 4 (≈ 3.43 µM) | 8 (≈ 6.86 µM) | 8 (≈ 6.86 µM) | 32 (≈ 27.5 µM) | 8 (≈ 6.86 µM) | 8 (≈ 6.86 µM) | – | – | – | – | – | – | – | –
2 | CCCCCCC[C@@H](O)CC(=O)N[C@H](CCN)C(=O)N[C@H]1CCNC(=O)[C@H](CC(C)C)NC(=O)[C@H](CCN)NC(=O)[C@H](CCN)NC(=O)[C@H](CC(C)C)NC(=O)[C@@H](Cc2ccccc2)NC(=O)[C@H](CCN)NC1=O [Octapeptin C4 (631), 3(R)OH-nC9CO-D-Dab-cyc[L-Dab-L-Dab-D-Phe-L-Leu-L-Dab-L-Dab-L-Leu], reference compound] ({Decanoyl(3R-OH)}-[dDab][Dab][Dab][dF]L[Dab][Dab]L; lactam 2-C) | 8 (≈ 7.66 µM) | 16 (≈ 15.3 µM) | 4 (≈ 3.83 µM) | 2 (≈ 1.92 µM) | 8 (≈ 7.66 µM) | 2 (≈ 1.92 µM) | 2 (≈ 1.92 µM) | 8 (≈ 7.66 µM) | 4 (≈ 3.83 µM) | 2 (≈ 1.92 µM) | 4 (≈ 3.83 µM) | 4 (≈ 3.83 µM) | 8 (≈ 7.66 µM) | 2 (≈ 1.92 µM) | 8 (≈ 7.66 µM) | 2 (≈ 1.92 µM) | 8 (≈ 7.66 µM) | 4 (≈ 3.83 µM) | 4 (≈ 3.83 µM) | MIC, S. Aureus ATCC 25923, MSSA [2]: 16 µg/mL (≈ 15.3 µM); MIC A. baumannii Cl Ptyela 10073 4512:2, PmxR (A. baumannii GN_093 PmxR): 4 µg/mL (≈ 3.83 µM); MIC, A. baumannii Cl Ptyela 10073 4512:2, PmxR (A. baumannii GN_093 PmxR): 4 µg/mL (≈ 3.83 µM); MIC P. aeruginosa GN_043, PmxR [3]: 2 µg/mL (≈ 1.92 µM); MIC, P. aeruginosa FADDI-PA070, PmxR ([3]; Table 5, polymyxin-resistant): 2 µg/mL (≈ 1.92 µM); MIC, P. aeruginosa FADDI-PA070, PmxR ([3]; strain name as in Table 11): 2 µg/mL (≈ 1.92 µM); MIC K. pneumoniae Cl Koprana 10065 0661:1 PmxR [4]: 2 µg/mL (≈ 1.92 µM); MIC, K. pneumoniae Cl Koprana 10065 0661:1, PmxR [4]: 2 µg/mL (≈ 1.92 µM); MIC K. pneumoniae Cl 183-16357-20352, PmxR [6]: 4 µg/mL (≈ 3.83 µM); MIC, K. pneumoniae Cl 138-16347-20362, PmxR [6]: 4 µg/mL (≈ 3.83 µM); MIC P. aeruginosa PA9704, PmxR [7]: 2 µg/mL (≈ 1.92 µM); MIC, P. aeruginosa PA9704, PmxR [7]: 2 µg/mL (≈ 1.92 µM)
3 | CCCCCCC[C@@H](O)CC(=O)N[C@@H](CCN)C(=O)N[C@@H]1CCNC(=O)[C@H](CC(C)C)NC(=O)[C@H](CCN)NC(=O)[C@H](CCN)NC(=O)[C@H](CC(C)C)NC(=O)[C@@H](Cc2ccc(-c3ccccc3)cc2)NC(=O)[C@H](CCN)NC1=O [compound 6661, 3(R)OH-nC9CO-L-Dab-cyc[D-Dab-L-Dab-D-Bip-L-Leu-L-Dab-L-Dab-L-Leu]] ({Decanoyl(3R-OH)}-[Dab][dDab][Dab][dBip]L[Dab][Dab]L; lactam 2-C) | 32 (≈ 28.6 µM) | 8 (≈ 7.14 µM) | >32 | – | 32 (≈ 28.6 µM) | >32 | 8 (≈ 7.14 µM) | 32 (≈ 28.6 µM) | >32 | 8 (≈ 7.14 µM) | 32 (≈ 28.6 µM) | >32 | – | >32 | – | – | – | – | – | –
4 | CCCCCCC[C@@H](O)CC(=O)N[C@@H](CCCCN)C(=O)N[C@H]1CCNC(=O)[C@H](CC(C)C)NC(=O)[C@H](CCN)NC(=O)[C@H](CCN)NC(=O)[C@H](CC(C)C)NC(=O)[C@@H](Cc2ccccc2)NC(=O)[C@H](CCN)NC1=O [compound 5562, 3(R)OH-nC9CO-L-Lys-cyc[L-Dab-L-Dab-D-Phe-L-Leu-L-Dab-L-Dab-L-Leu]] ({Decanoyl(3R-OH)}-K[Dab][Dab][dF]L[Dab][Dab]L; lactam 2-C) | – | – | 32 (≈ 29.8 µM) | – | – | 4 (≈ 3.73 µM) | – | – | 4 (≈ 3.73 µM) | >32 | – | – | 8 (≈ 7.46 µM) | – | 8 (≈ 7.46 µM) | 2 (≈ 1.86 µM) | 4 (≈ 3.73 µM) | 8 (≈ 7.46 µM) | >32 | MIC, S. aureus ATCC 25923, MSSA [2]: 32 µg/mL (≈ 29.8 µM); MIC P. aeruginosa GN_043, PmxR ([3]; Table 6, polymyxin-resistant): 4 µg/mL (≈ 3.73 µM)
